Measurements as given in ChEMBL document CHEMBL1201862, “PubChem BioAssay data set” (2004).
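Compound exposure: 48 hours, 5 concentrations, 96-well plates. GI50 is the concentration that inhibits growth by half.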 Active and inactive are the calls of the source. Cut-off read from the data, not from the text of the source: active = GI50 up to about 1.1 µM and inactive = higher.

Experiments:
Test in all cases: growth of human tumour cells (NCI), 48 h
[1] = tested on: MDA-N
[2] = tested on: COLO 205
[3] = tested on: MDA-MB-435
[4] = tested on: OVCAR-4
[5] = tested on: A549
[6] = tested on: SK-MEL-2
[7] = tested on: SK-MEL-5
[8] = tested on: OVCAR-3
[9] = tested on: K562
[10] = tested on: CAKI-1
[11] = tested on: PC-3
[12] = tested on: RPMI-8226
[13] = tested on: ACHN
[14] = tested on: HOP-62
[15] = tested on: CCRF-CEM
[16] = tested on: DU-145
[17] = tested on: EKVX
[18] = tested on: M14
[19] = tested on: HCT-116
[20] = tested on: 786-0
[21] = tested on: HCT-15
[22] = tested on: NCI-H522
[23] = tested on: SNB-19
[24] = tested on: T47D
[25] = tested on: BT-549
[26] = tested on: NCI-H460
[27] = tested on: LOX IMVI
[28] = tested on: SK-MEL-28
[29] = tested on: SF-268
[30] = tested on: MOLT-4
[31] = tested on: UO-31
[32] = tested on: KM12
[33] = tested on: HOP-92
[34] = tested on: HT-29
[35] = tested on: Malme-3M
[36] = tested on: MDA-MB-231
[37] = tested on: NCI-H226
[38] = tested on: IGROV-1
[39] = tested on: MCF7
[40] = tested on: NCI-H23
[41] = tested on: Hs-578T
[42] = tested on: SN12C
[43] = tested on: U-251
[44] = tested on: OVCAR-8
[45] = tested on: A498
[46] = tested on: SW-620
[47] = tested on: TK-10
[48] = tested on: UACC-257
[49] = tested on: OVCAR-5
[50] = tested on: UACC-62
[51] = tested on: NCI/ADR-RES
[52] = tested on: SF-295
[53] = tested on: SR
[54] = tested on: HCC 2998
[55] = tested on: SF-539
[56] = tested on: SNB-75
[57] = tested on: RXF 393
[58] = tested on: SK-OV-3
[59] = tested on: HL-60

## Cc1cc(Nc2ccc(NS(C)(=O)=O)cc2)c2c(ccc3[nH]ccc32)n1
[1]
  GI50: 17.6 µM (inactive)
[2]
  GI50: 14.3 µM (inactive)
[3]
  GI50: 16.1 µM (inactive)
[4]
  GI50: 12.4 µM (inactive)
[5]
  GI50: 33.3 µM (inactive)
[6]
  GI50: 15.9 µM (inactive)
[7]
  GI50: 15.1 µM (inactive)
[8]
  GI50: 13.1 µM (inactive)
[9]
  GI50: 13.6 µM (inactive)
[10]
  GI50: 29.5 µM (inactive)
[11]
  GI50: 20.4 µM (inactive)
[12]
  GI50: 20.6 µM (inactive)
[13]
  GI50: 22.8 µM (inactive)
[14]
  GI50: 19.4 µM (inactive)
[15]
  GI50: 7.87 µM (inactive)
[16]
  GI50: 18.8 µM (inactive)
[17]
  GI50: 36 µM (inactive)
[18]
  GI50: 16.6 µM (inactive)
[19]
  GI50: 17.2 µM (inactive)
[20]
  GI50: 20.4 µM (inactive)
[21]
  GI50: > 100 µM
[22]
  GI50: 9.35 µM (inactive)
[23]
  GI50: 18.1 µM (inactive)
[24]
  GI50: 3.5 µM (inactive)
[25]
  GI50: 21.9 µM (inactive)
[26]
  GI50: 19.3 µM (inactive)
[27]
  GI50: 18.5 µM (inactive)
[28]
  GI50: 17.7 µM (inactive)
[29]
  GI50: 7.24 µM (inactive)
[30]
  GI50: 2.77 µM (inactive)
[31]
  GI50: > 100 µM (inactive)
[32]
  GI50: 10.8 µM (inactive)
[33]
  GI50: 19 µM (inactive)
[34]
  GI50: 27.5 µM (inactive)
[35]
  GI50: 12.5 µM (inactive)
[36]
  GI50: 16.4 µM (inactive)
[37]
  GI50: 19.5 µM (inactive)
[38]
  GI50: 28.6 µM (inactive)
[39]
  GI50: 7.4 µM (inactive)
[40]
  GI50: 20.7 µM (inactive)
[41]
  GI50: 28.6 µM (inactive)
[42]
  GI50: 17.8 µM (inactive)
[43]
  GI50: 15.1 µM (inactive)
[44]
  GI50: 22.9 µM (inactive)
[45]
  GI50: 21.2 µM (inactive)
[46]
  GI50: 21.7 µM (inactive)
[47]
  GI50: 28.6 µM (inactive)
[48]
  GI50: 17.3 µM (inactive)
[49]
  GI50: 26.2 µM (inactive)
[50]
  GI50: 15.7 µM (inactive)
[51]
  GI50: > 100 µM (inactive)
[52]
  GI50: 22.3 µM (inactive)

## CN(c1ccc(Cl)cc1)S(=O)(=O)c1ccccc1
[1]
  GI50: 64.9 µM (inactive)
[2]
  GI50: 47.2 µM (inactive)
[53]
  GI50: 32.1 µM (inactive)
[3]
  GI50: 41.3 µM (inactive)
[4]
  GI50: 77.1 µM (inactive)
[5]
  GI50: 72.4 µM (inactive)
[6]
  GI50: > 100 µM (inactive)
[7]
  GI50: 18.7 µM (inactive)
[54]
  GI50: 84.1 µM (inactive)
[8]
  GI50: 64.3 µM (inactive)
[9]
  GI50: 36.8 µM (inactive)
[10]
  GI50: 51.3 µM (inactive)
[11]
  GI50: 21.6 µM (inactive)
[12]
  GI50: 42.3 µM (inactive)
[13]
  GI50: > 100 µM (inactive)
[14]
  GI50: 71.9 µM (inactive)
[15]
  GI50: 46.2 µM (inactive)
[16]
  GI50: > 100 µM (inactive)
[17]
  GI50: 37.6 µM (inactive)
[18]
  GI50: 45.1 µM (inactive)
[19]
  GI50: 37.5 µM (inactive)
[20]
  GI50: > 100 µM (inactive)
[21]
  GI50: 52.2 µM
[22]
  GI50: 76.7 µM (inactive)
[23]
  GI50: 97.7 µM (inactive)
[24]
  GI50: 34.2 µM (inactive)
[55]
  GI50: 43 µM (inactive)
[25]
  GI50: 32 µM (inactive)
[26]
  GI50: 43.1 µM (inactive)
[27]
  GI50: 42.8 µM (inactive)
[28]
  GI50: 54.8 µM (inactive)
[29]
  GI50: 49 µM (inactive)
[30]
  GI50: 28 µM (inactive)
[31]
  GI50: 42 µM (inactive)
[32]
  GI50: 40.8 µM (inactive)
[34]
  GI50: 42.3 µM (inactive)
[35]
  GI50: > 100 µM (inactive)
[56]
  GI50: 61.4 µM (inactive)
[36]
  GI50: 35.4 µM (inactive)
[37]
  GI50: 30.4 µM (inactive)
[57]
  GI50: 11.3 µM (inactive)
[38]
  GI50: > 100 µM (inactive)
[39]
  GI50: 52.4 µM (inactive)
[40]
  GI50: 30.8 µM (inactive)
[41]
  GI50: > 100 µM (inactive)
[42]
  GI50: > 100 µM (inactive)
[43]
  GI50: 42.9 µM (inactive)
[44]
  GI50: 44.6 µM (inactive)
[46]
  GI50: 85.5 µM (inactive)
[47]
  GI50: 65.6 µM (inactive)
[48]
  GI50: > 100 µM (inactive)
[58]
  GI50: 78.5 µM (inactive)
[49]
  GI50: 52.8 µM (inactive)
[50]
  GI50: 48.4 µM (inactive)
[51]
  GI50: 36 µM (inactive)
[59]
  GI50: 15 µM (inactive)
[52]
  GI50: 65.3 µM (inactive)

## CCOC(=O)CNC(=O)C(CSC(=O)N(O)c1ccc(Cl)cc1)NC(=O)CCC(N)C(=O)OCC (stereo unspecified)
[1]
  GI50: 36 µM (inactive)
[2]
  GI50: > 50 µM (inactive)
[53]
  GI50: 43.5 µM (inactive)
[3]
  GI50: 30.1 µM (inactive)
[5]
  GI50: > 50 µM (inactive)
[6]
  GI50: > 50 µM (inactive)
[7]
  GI50: > 50 µM (inactive)
[54]
  GI50: 4.75 µM (inactive)
[8]
  GI50: > 50 µM (inactive)
[9]
  GI50: 11.8 µM (inactive)
[10]
  GI50: > 50 µM (inactive)
[11]
  GI50: > 50 µM (inactive)
[12]
  GI50: 12.1 µM (inactive)
[13]
  GI50: > 50 µM (inactive)
[14]
  GI50: 24.3 µM (inactive)
[15]
  GI50: > 50 µM (inactive)
[16]
  GI50: > 50 µM (inactive)
[17]
  GI50: 12.5 µM (inactive)
[18]
  GI50: 34.8 µM (inactive)
[19]
  GI50: > 50 µM (inactive)
[20]
  GI50: > 50 µM (inactive)
[21]
  GI50: > 50 µM
[23]
  GI50: 9.53 µM (inactive)
[24]
  GI50: > 50 µM (inactive)
[55]
  GI50: > 50 µM (inactive)
[25]
  GI50: > 50 µM (inactive)
[26]
  GI50: > 50 µM (inactive)
[27]
  GI50: > 50 µM (inactive)
[28]
  GI50: 24.8 µM (inactive)
[29]
  GI50: 1.88 µM (inactive)
[30]
  GI50: 19.3 µM (inactive)
[31]
  GI50: > 50 µM (inactive)
[32]
  GI50: 12.2 µM (inactive)
[33]
  GI50: 3.98 µM (inactive)
[34]
  GI50: > 50 µM (inactive)
[36]
  GI50: 21 µM (inactive)
[37]
  GI50: 1.32 µM (inactive)
[57]
  GI50: > 50 µM (inactive)
[38]
  GI50: 4.14 µM (inactive)
[39]
  GI50: > 50 µM (inactive)
[40]
  GI50: > 50 µM (inactive)
[41]
  GI50: 1.9 µM (inactive)
[42]
  GI50: > 50 µM (inactive)
[43]
  GI50: > 50 µM (inactive)
[44]
  GI50: > 50 µM (inactive)
[46]
  GI50: 14.8 µM (inactive)
[48]
  GI50: > 50 µM (inactive)
[58]
  GI50: > 50 µM (inactive)
[49]
  GI50: > 50 µM (inactive)
[50]
  GI50: > 50 µM (inactive)
[51]
  GI50: > 50 µM (inactive)
[52]
  GI50: > 50 µM (inactive)
